Among the data in PubChem BioAssay AID449725 (University of Pittsburgh Molecular Library Screening Center, 2010) are IC50 values, retold here.

Molecules are shown by their SMILES. Active and inactive are the calls of the source. How the calls were made is not given here.

The test system of the experiment is IMR-90 human lung fibroblast viability counter screen. Kind of experiment: cytotoxicity in human IMR-90 lung fibroblasts – cell-based, IC50, cytotoxicity control, dose response (AID 449725).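 Further: 48 hour compound exposure before the viability read.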

For orientation: IC50 means the midpoint of a concentration-inhibition curve. As to `Cc1ccc(C(=O)Nc2cc(Cl)ccc2C(=O)O)cc1`, the IC50 was > 25 µM (inactive).
As for `COc1ccc(NC(=O)c2ccccc2SCc2ccccc2)cc1`, the figure is > 25 µM (inactive); as for `O=C(O)c1ccc(Cl)cc1NC(=O)C1CCOCC1`, > 25 µM (inactive).
As for `Cc1cc(=O)n(-c2ccccc2)s1`, the figure is 9.14 µM; as for `CC(C)(C)c1ccc(C(=O)Nc2cc(Cl)ccc2O)cc1`, > 25 µM (inactive).
Consider `CC(C)c1cccc(C(=O)Nc2cc(Cl)ccc2C(=O)O)c1`, for which the IC50 was > 25 µM (inactive).
With `COc1ccc(NC(=O)c2ccccc2C(=O)O)cc1`, the IC50 was > 25 µM (inactive).
To `O=C(O)c1ccc(Cl)cc1NC(=O)c1coc2ccccc12` belongs > 25 µM (inactive).
As for `O=C(Cn1sc2ccccc2c1=O)Nc1ccccc1I`, the figure is > 25 µM (inactive).
To `COc1ccc(C(=O)Nc2cc(Cl)ccc2C(=O)O)cn1` belongs > 25 µM (inactive).
Turning to `O=c1ccsn1-c1ccccc1`, the IC50 was 5.79 µM.
As for `COc1ccc(C(=O)Nc2ccc(Cl)cc2C(=O)O)cc1`, the figure is > 25 µM (inactive).
To `CN(C)c1cccc(NC(=O)Cn2sc3ccccc3c2=O)c1` belongs > 25 µM (inactive); to `O=C(Nc1cc(Cl)ccc1C(=O)O)c1ccc2c(c1)CCC2`, > 25 µM (inactive); to `CC(C)(C)c1ccc(C(=O)Nc2cc(Cl)c(Cl)cc2C(=O)O)cc1`, > 25 µM (inactive).
As for `COc1ccc2c(c1)CN(c1cc(Cl)ccc1C(=O)O)C2=O`, the IC50 was > 25 µM (inactive).
To `COc1ccc(C(=O)Nc2cc(C(F)(F)F)ccc2C(=O)O)cc1` belongs > 25 µM (inactive); to `COc1ccc(C(=O)N2CCC(=O)c3ccc(Cl)cc32)cc1`, > 25 µM (inactive); to `CCOc1ccc(C(=O)Nc2cc(Cl)ccc2C(=O)O)cc1`, > 25 µM (inactive).
To `O=C(Nc1cc(Cl)ccc1C(=O)O)c1ccc(I)cc1` belongs > 25 µM (inactive); to `O=c1c2ccc(Br)cc2sn1-c1ccccc1`, > 25 µM (inactive); to `O=c1c2ccccc2sn1-c1ccc(Cl)cc1`, > 25 µM (inactive).
To `O=c1c2cc(F)ccc2sn1-c1ccccc1` belongs > 25 µM (inactive).
Take `COc1ccc(C(=O)Nc2cc(Br)ccc2C(=O)O)cc1`: the IC50 was > 25 µM (inactive).
As for `COc1ccc(C(=O)Nc2cc(Cl)ccc2S(N)(=O)=O)cc1`, the figure is > 25 µM (inactive); as for `O=C(Cn1sc2ccccc2c1=O)NCc1ccccc1`, 6.37 µM; as for `CC(=O)Nc1cc(Cl)ccc1C(=O)O`, > 25 µM (inactive).
As for `O=C(c1ccccc1)n1sc2ccccc2c1=O`, the figure is 17 µM.
For the compound `O=C(Cn1sc2ccccc2c1=O)Nc1ccc(Br)cc1`, the IC50 was > 25 µM (inactive).
Regarding `O=C(Cn1sc2ccccc2c1=O)Nc1ccc(F)cc1`, the half-inhibitory concentration (IC50) is 6.87 µM.
As for `COc1ccc(C(=O)Nc2cc(Cl)ccc2O)cc1`, the figure is > 25 µM (inactive); as for `Cn1c2ccccc2c(=O)n1-c1ccccc1`, > 25 µM (inactive); as for `COc1ccc(C(=O)Nc2c(C(=O)O)ccc(Cl)c2Cl)cc1`, > 25 µM (inactive).
To `O=C(Cn1sc2ccccc2c1=O)Nc1ccccc1F` belongs > 25 µM (inactive).
For the compound `O=C(Cn1sc2ccccc2c1=O)N1CCCCC1`, the IC50 was 16.5 µM.
To `COc1ccc(C(=O)Nc2cc(Cl)ccc2-c2nn[nH]n2)cc1` belongs > 25 µM (inactive).
To `CC(C)(C)c1ccc(C(=O)Nc2c(C(=O)O)ccc(Cl)c2Cl)cc1` belongs > 25 µM (inactive).
To `COc1ccc(C(=O)NC(CC(=O)O)c2ccc(Cl)cc2)cc1` (centres undefined) belongs > 25 µM (inactive); to `O=C1c2ccccc2S(=O)N1c1cccc(F)c1` (centres undefined), > 25 µM (inactive).
On to `O=c1c2c(Br)cccc2sn1-c1ccccc1`, for which the IC50 is > 25 µM (inactive).
As for `COC(=O)c1ccc(Cl)cc1NC(=O)c1ccc(Cl)cc1`, the figure is > 25 µM (inactive); as for `CCCCCC(=O)Nc1cc(Cl)ccc1C(=O)O`, > 25 µM (inactive); as for `O=c1c2cc(F)c(F)cc2sn1-c1ccccc1`, > 25 µM (inactive).
To `O=C(Cn1sc2cc(F)ccc2c1=O)Nc1ccccc1` belongs 14.8 µM.
Consider `O=C(Nc1cc(Cl)ccc1C(=O)O)c1ccc2c(c1)OCO2`, for which the IC50 was > 25 µM (inactive).
To `CC1(c2ccc(C(=O)Nc3cc(Cl)ccc3C(=O)O)cc2)CC1` belongs > 25 µM (inactive).
As for `Cc1ccc(-n2sc3cc(F)ccc3c2=O)c(C)c1`, the figure is 6.4 µM; as for `O=C(Nc1cc(Cl)ccc1C(=O)O)c1ccc(C2CCCC2)cc1`, > 25 µM (inactive).
Regarding `O=C(Nc1cc(Cl)ccc1C(=O)O)c1ccc(-c2ccccc2)cc1`, the IC50 was > 25 µM (inactive).
To `COc1ccccc1C(=O)Nc1cc(Cl)ccc1C(=O)O` belongs > 25 µM (inactive); to `CCc1ccc(C(=O)Nc2cc(Br)ccc2C(=O)O)cc1`, > 25 µM (inactive).
To `N#Cc1ccc(NC(=O)Cn2sc3ccccc3c2=O)cc1` belongs 19.7 µM; to `O=c1c2ccccc2sn1-c1cccc(F)c1`, 7.9 µM; to `Cn1sc2ccccc2c1=O`, 2.32 µM.
